Reference: patent publication US20110105474A1, “HETEROCYCLIC DERIVATIVES AS HDAC INHIBITORS” (DAC S.r.l., priority 2008, published 2011)
Structures can show the parent of a compound that is named as a salt.

Tests used:
Assay type in all cases: cell-based
A549 cells = experiment: Cell growth, CellTiter-Glo Luminescent Cell Viability Assay, A549; conditions: Homo sapiens, 72 h incubation
Excerpt: (§1) CellTiter-Glo® Luminescent Cell Viability Assay (Promega) is a homogeneous method of determining the number of viable cells in culture based on quantitation of the present ATP, which indicates the presence of metabolically active cells. The homogeneous assay procedure involves addition of a single reagent (CellTiter-Glo®Reagent) directly to the cells, which leads to cell lysis and generation of a luminescent signal proportional to the amount of the ATP and the number of cells present in culture. The assay relies on the properties of a proprietary thermostable luciferase (Ultra-Glo® recombinant luciferase), which generates a luminescent signal.
(§2) K562, A549 and HCT-116 cells, in exponential growth, were incubated for 72 h with different concentrations of the inhibitors. After 72 h, a volume of CellTiter-Glo® Reagent equal to the volume of cell culture medium was added. The content was mixed for 2 min to induce cell lysis. The luminescence was recorded after further 10 min at RT in order to obtain a stabilized luminescent signal.
(§3) The IC50 was calculated using GraphPad Software.
(§4) IC50 results were allocated to one of 3 ranges as follows: Range A: IC50≦1.0 μM; Range B: from 1.0 to 3.0 μM; Range C: IC50≧3.0 μM.

HCT-116 cells = experiment: Cell growth, CellTiter-Glo Luminescent Cell Viability Assay, HCT-116; conditions: Homo sapiens, 72 h incubation, read-out: IC50 HCT116
Excerpt: as §1, §2, §3, §4

K562 cells = experiment: Cell growth, CellTiter-Glo Luminescent Cell Viability Assay, K562; conditions: Homo sapiens, 72 h incubation
Excerpt: as §1, §2, §3, §4

SMILES	IC50 (A549 cells) [nM]	IC50 (HCT-116 cells) [nM]	IC50 (K562 cells) [nM]
COc1ccc(N2CCN(C(=O)/C=C/c3cccc(/C=C/C(=O)NO)n3)CC2)cc1 [Example 34, (E)-N-Hydroxy-3-(6-{(E)-3-[4-(4-methoxy-phenyl)-piperazin-1-yl]-3-oxo-propenyl}-pyridin-2-yl)-acrylamide hydrochloride]	1000 to 3000	≤ 1000	1000 to 3000
O=C(/C=C/c1cccc(/C=C/C(=O)N2CCN(c3ccc(C(F)(F)F)cc3)CC2)n1)NO [Example 35, (E)-N-Hydroxy-3-(6-{(E)-3-oxo-3-[4-(4-trifluoromethyl-phenyl)-piperazin-1-yl]-propenyl}-pyridin-2-yl)-acrylamide hydrochloride]	≤ 1000	≤ 1000	1000 to 3000
N#Cc1ccc(N2CCN(C(=O)/C=C/c3cccc(/C=C/C(=O)NO)n3)CC2)cc1 [Example 36, (E)-3-(6-{(E)-3-[4-(4-Cyano-phenyl)-piperazin-1-yl]-3-oxo-propenyl}-pyridin-2-yl)-N-hydroxy-acrylamide hydrochloride]	≥ 3000	≥ 3000	≥ 3000
O=C(/C=C/c1cccc(/C=C/C(=O)N2CCN(c3ccc(F)cc3)CC2)n1)NO [Example 37, (E)-3-(6-{(E)-3-[4-(4-Fluoro-phenyl)-piperazin-1-yl]-3-oxo-propenyl}-pyridin-2-yl)-N-hydroxy-acrylamide hydrochloride]	1000 to 3000	≤ 1000	1000 to 3000
O=C(/C=C/c1cccc(/C=C/C(=O)N2CCN(c3ccc(Br)cc3)CC2)n1)NO [Example 38, (E)-3-(6-{(E)-3-[4-(4-Bromo-phenyl)-piperazin-1-yl]-3-oxo-propenyl}-pyridin-2-yl)-N-hydroxy-acrylamide hydrochloride]	≤ 1000	≤ 1000	≤ 1000
O=C(/C=C/c1cccc(/C=C/C(=O)N2CCN(c3ccc(OCc4ccccc4)cc3)CC2)n1)NO [Example 39, (E)-3-(6-{(E)-3-[4-(4-Benzyloxy-phenyl)-piperazin-1-yl]-3-oxo-propenyl}-pyridin-2-yl)-N-hydroxy-acrylamide hydrochloride]	≥ 3000	1000 to 3000	1000 to 3000
O=C(/C=C/c1cccc(/C=C/C(=O)N2CCN(c3ccncc3)CC2)n1)NO [Example 40, (E)-N-Hydroxy-3-{6-[(E)-3-oxo-3-(4-pyridin-4-yl-piperazin-1-yl)-propenyl]-pyridin-2-yl}-acrylamide hydrochloride]	≥ 3000	≥ 3000	≥ 3000
O=C(/C=C/c1cccc(/C=C/C(=O)N2C[C@@H]3C[C@H]2CN3c2ccc(Cl)cc2)n1)NO [Example 41, (E)-3-(6-{(E)-3-[5-(4-Chloro-phenyl)-(1S,4S)-2,5-diaza-bicyclo[2.2.1]hept-2-yl]-3-oxo-propenyl}-pyridin-2-yl)-N-hydroxy-acrylamide trifluoroacetate]	≥ 3000	1000 to 3000	1000 to 3000
O=C(/C=C/c1cccc(/C=C/C(=O)N2CCc3[nH]c4ccccc4c3C2)n1)NO [Example 45, (E)-N-Hydroxy-3-{6-[(E)-3-oxo-3-(1,3,4,5-tetrahydro-pyrido[4,3-b]indol-2-yl)-propenyl]-pyridin-2-yl}-acrylamide hydrochloride]	≥ 3000	1000 to 3000	1000 to 3000
CC(C)c1ccc(N2CCN(C(=O)/C=C/c3cccc(/C=C/C(=O)NO)n3)CC2)cc1 [Example 49, (E)-N-Hydroxy-3-(6-{(E)-3-[4-(4-isopropyl-phenyl)-piperazin-1-yl]-3-oxo-propenyl}-pyridin-2-yl)-acrylamide hydrochloride]	1000 to 3000	≤ 1000	1000 to 3000
CC(C)(C)c1ccc(N2CCN(C(=O)/C=C/c3cccc(/C=C/C(=O)NO)n3)CC2)cc1 [Example 50, (E)-3-(6-{(E)-3-[4-(4-tert-Butyl-phenyl)-piperazin-1-yl]-3-oxo-propenyl}-pyridin-2-yl)-N-hydroxy-acrylamide hydrochloride]	≥ 3000	1000 to 3000	1000 to 3000
CS(=O)(=O)c1ccc(N2CCN(C(=O)/C=C/c3cccc(/C=C/C(=O)NO)n3)CC2)cc1 [Example 51, (E)-N-Hydroxy-3-(6-{(E)-3-[4-(4-methanesulfonyl-phenyl)-piperazin-1-yl]-3-oxo-propenyl}-pyridin-2-yl)-acrylamide hydrochloride]	≥ 3000	≥ 3000	≥ 3000
O=C(/C=C/c1cccc(/C=C/C(=O)N2CCCc3ccccc32)n1)NO [Example 55, (E)-3-{6-[(E)-3-(3,4-Dihydro-2H-quinolin-1-yl)-3-oxo-propenyl]-pyridin-2-yl}-N-hydroxy-acrylamide trifluoroacetate]	≤ 1000	≤ 1000	≤ 1000
O=C(/C=C/c1cccc(/C=C/C(=O)N2CCc3c([nH]c4ccccc34)C2)n1)NO [Example 56, (E)-N-Hydroxy-3-{6-[(E)-3-oxo-3-(1,3,4,9-tetrahydro-beta-carbolin-2-yl)-propenyl]-pyridin-2-yl}-acrylamide hydrochloride]	≥ 3000	1000 to 3000	1000 to 3000
O=C(/C=C/c1cccc(/C=C/C(=O)N2CCc3ccccc3C2)n1)NO [Example 58, (E)-3-{6-[(E)-3-(3,4-Dihydro-1H-isoquinolin-2-yl)-3-oxo-propenyl]-pyridin-2-yl}-N-hydroxy-acrylamide hydrochloride]	1000 to 3000	≤ 1000	≤ 1000

Now from value to molecule:

IC50 (A549 cells) [nM]	IC50 (HCT-116 cells) [nM]	IC50 (K562 cells) [nM]	SMILES
≥ 3000	1000 to 3000	≥ 3000	O=C(/C=C/c1cccc(/C=C/C(=O)N2CCC(c3nc4ccccc4o3)CC2)n1)NO [Example 57, (E)-3-{6-[(E)-3-(4-Benzooxazol-2-yl-piperidin-1-yl)-3-oxo-propenyl]-pyridin-2-yl}-N-hydroxy-acrylamide hydrochloride]
≥ 3000	≥ 3000	≥ 3000	O=C(/C=C/c1cccc(/C=C/C(=O)N2CCC(c3nc4ccccc4[nH]3)CC2)n1)NO [Example 59, (E)-3-(6-{(E)-3-[4-(1H-Benzoimidazol-2-yl)-piperidin-1-yl]-3-oxo-propenyl}-pyridin-2-yl)-N-hydroxy-acrylamide hydrochloride]
≥ 3000	1000 to 3000	≤ 1000	O=C(/C=C/c1cccc(/C=C/C(=O)N2CCC3(C=Cc4ccccc43)CC2)n1)NO [Example 60, (E)-3-(6-{(E)-3-[Spiro[indene-1,4′-piperidine-1′-yl]-3-oxo-propenyl}-pyridin-2-yl)-N-hydroxy-acrylamide hydrochloride]
1000 to 3000	≤ 1000	≤ 1000	O=C(/C=C/c1cccc(/C=C/C(=O)N2CCC3(CC2)OCc2ccccc23)n1)NO [Example 61, (E)-3-(6-{(E)-3-[Spiro[2-benzofuran-1,4′-piperidine-1′-yl]-3-oxo-propenyl}-pyridin-2-yl)-N-hydroxy-acrylamide hydrochloride]
≥ 3000	≥ 3000	≥ 3000	O=C(/C=C/c1cccc(/C=C/C(=O)N2CCC(n3c(-c4ccccc4)nc4ccccc43)CC2)n1)NO [Example 62, (E)-N-Hydroxy-3-(6-{(E)-3-oxo-3-[4-(2-phenyl-benzoimidazol-1-yl)-piperidin-1-yl]-propenyl}-pyridin-2-yl)-acrylamide hydrochloride]
≤ 1000	≤ 1000	≤ 1000	O=C(/C=C/c1cccc(/C=C/C(=O)N2CCC[C@@H](c3ccccc3)C2)n1)NO [Example 73, (E)-N-Hydroxy-3-{6-[(E)-3-oxo-3-((S)-3-phenyl-piperidin-1-yl)-propenyl]-pyridin-2-yl}-acrylamide hydrochloride]
≤ 1000	≤ 1000	≤ 1000	O=C(/C=C/c1cccc(/C=C/C(=O)N2CCCC(c3ccccc3)C2)n1)NO (stereo not drawn) [Example 74, (E)-N-Hydroxy-3-{6-[(E)-3-oxo-3-((12)-3-phenyl-piperidin-1-yl)-propenyl]-pyridin-2-yl}-acrylamide hydrochloride]
1000 to 3000	≤ 1000	1000 to 3000	O=C(/C=C/c1cccc(/C=C/C(=O)N2CC=C(c3ccccc3)CC2)c1)NO [Example 75, (E)-N-Hydroxy-3-{3-[(E)-3-oxo-3-(4-phenyl-3,6-dihydro-2H-pyridin-1-yl)-propenyl]-phenyl}-acrylamide]
≤ 1000	≤ 1000	≤ 1000	O=C(/C=C/c1cccc(/C=C/C(=O)N2CCN(c3ccc(Cl)cc3)CC2)c1)NO [Example 76, (E)-3-(3-{(E)-3-[4-(4-Chloro-phenyl)-piperazin-1-yl]-3-oxo-propenyl}-phenyl)-N-hydroxy-acrylamide hydrochloride]
≥ 3000	1000 to 3000	1000 to 3000	O=C(/C=C/c1cccc(/C=C/C(=O)N2CCC(C(=O)c3ccccc3)CC2)c1)NO [Example 77, (E)-3-{3-[(E)-3-(4-Benzoyl-piperidin-1-yl)-3-oxo-propenyl]phenyl}-N-hydroxy-acrylamide]
≥ 3000	≥ 3000	≥ 3000	O=C(/C=C/c1cccc(/C=C/C(=O)N2CCC[C@H](c3ccccc3)C2)c1)NO [Example 81, (E)-N-Hydroxy-3-{3-[(E)-3-oxo-3-((R)-3-phenyl-piperidin-1-yl)-propenyl]-phenyl}acrylamide]
